{"source": "patent US20240122932A1", "about": "“Methods of Treating B-Cell Malignancy Using Bcl-2 Inhibitor” (BeiGene Switzerland GmbH, priority 2021, published 2024)", "key": {"[1]": {"test_system": "JeKo-1 human mantle cell lymphoma (MCL) subcutaneous xenograft", "assay": "JeKo-1 human MCL subcutaneous xenograft model, Bcl-2 inhibitor with BTK inhibitor", "type": "in vivo, NCG mice", "details": "for TGI (%): day 21", "method": "JeKo-1 cells were maintained as suspension cell cultures at 37° C. in a 5% CO2 atmosphere. Five to six-week-old female NCG mice were purchased from Gempharmatech of Information Technology Center. All animals were maintained under specific pathogen free (SPF) “full barrier” condition with free access to food and water. […] Mice were fed with complete granulated feed with Co60 radiosterilization (Beijing Ke Ao Xie Li Feed Co., Ltd.). All experiments were carried out in accordance with BeiGene's IACUC.\nRe-suspended cells were placed on ice prior to inoculation. […] Each animal was injected subcutaneously with 1×10^7 cells in 200 μL of cell suspension in the right front flank via a 26-gauge needle. After implantation, primary tumor volume was measured in two dimensions using a caliper.\nTransplanted animals were randomized into 8 groups with 10 mice per group on day 0 according to transplantation sequence and body weight. […] Treatments were administered by oral gavage (p.o.) in a volume of 10 mL/kg body weight. Body weight was assessed immediately before dosing and volume dosed was adjusted accordingly.\nIndividual body weight was recorded twice weekly, with mice being monitored daily for clinical signs of toxicity for the duration of the study. Mice were euthanized using carbon dioxide when their tumor volume reached 2,000 mm^3, the tumor was ulcerated, or body weight loss exceeded 20%.\nTumor volume (TV) was calculated using the formula: TV=0.5×(a×b^2) where a and b are the long and short diameters of the tumor, respectively. […] (treated t=treated tumor volume at time t, vehicle t=vehicle tumor volume at time t)"}, "[2]": {"test_system": "patients with R/R B-cell malignancies", "assay": "phase 1 clinical study: safety, tolerability, DLT, MTD", "type": "in vivo", "method": "A phase 1 study (dose escalation and safety expansion) to determine safety, tolerability, maximum tolerated dose ([…]), and recommended phase 2 dose (RP2D) of Compound 1 in patients with R/R B-cell malignancies was conducted. (Table 6-1A).\nDose-escalation (Part 1) occurs in independent cohorts categorized by patient disease type. These cohorts are continued until a recommended Phase 2 dose (RP2D) is identified, which is then used in corresponding expansion cohorts (Part 2).\nPart 1 Monotherapy Ramp-Up Schedule and Dose Finding • 1) Cohort 1A: Cohort 1A consists of patients with relapsed/refractory B-cell non-Hodgkin lymphoma (R/R B-cell NHL) excluding mantle cell lymphoma (MCL). These patients are expected to be at low risk of tumor lysis syndrome (low TLS risk), and are treated with a short ramp-up schedule reaching target dose on Day 3. Patients in this cohort receive escalating doses of Compound 1 monotherapy: 40 mg, 80 mg, 160 mg, 320 mg, and 640 mg (unless adjusted by Safety Monitoring Committee [SMC] recommendation). • 2) Cohort 1B is opened, when ≥1 tolerable dose level of Cohort 1A was determined. It consists of patients with low-tumor-burden R/R CLL/SLL. This cohort pursues dose finding, including evaluation of both ramp-up schedule and target dose. Patients increase the ramp-up dose weekly until the target dose for the cohort is reached. The ramp-up steps is 1 mg, 2 mg, 5 mg, 10 mg, 20 mg, 40 mg, 80 mg, 160 mg, 320 mg, and 640 mg (unless adjusted by SMC recommendation). […]. • 3) Cohort 1C: This Cohort consists of patients with high-tumor-burden R/R chronic lymphocytic leukemia/small lymphocytic lymphoma (R/R CLL/SLL). This cohort will not be dosed until the RP2D for Cohort 1B is established. The objective of this cohort is to confirm, in patients with high-tumor-burden CLL/SLL, the safety of the monotherapy ramp-up schedule and RP2D established in patients with low-tumor-burden CLL/SLL. • 4) Cohort 1D: This Cohort consists of patients with R/R MCL. This cohort will not be dosed until the RP2D for Cohort 1B is established. The objective of this cohort is to confirm, in patients with R/R MCL, the safety of the monotherapy ramp-up schedule and RP2D established in patients with low tumor-burden CLL/SLL. • Cohort 1D′: This Cohort consists of patients with R/R MCL. And, the target dosage are 160 and 320 mg. • 5) Cohort 1E: This Cohort consists of patients with R/R waldenstrom macroglobulinemia (R/R WM). This cohort will not be dosed until the RP2D for Cohort 1B is established. The objective of this cohort is to confirm, in patients with R/R WM, the safety of the monotherapy ramp-up schedule and RP2D established in patients with low tumor-burden CLL/SLL.\nAll dose cohorts would be reviewed by a safety monitoring committee (SMC) before opening subsequent dose levels or declaring an MTD/RP2D.\nThe study also includes dose escalation and expansion cohorts for the combination of Compound 1 and Bruton tyrosine kinase (BTK) inhibitor Zanubrutinib in patients with selected B-cell malignancy, such as CLL/SLL and mantle cell lymphoma (MCL). (Table 6-2A). Patients in the combination therapy cohorts receive Zanubrutinib 320 mg daily (160 mg twice a day [BID] or 320 mg once a day [QD]) beginning 8-12 weeks before Compound 1 is introduced. And, the corresponding dose-escalation and expansion are conducted in Part 3 and Part 4):\nDose finding is pursued in Patients with R/R CLL/SLL or R/R MCL who are Bel-2-inhibitor naive and have not progressed on a BTK inhibitor, including evaluation of ramp-up schedule and target dose of Compound 1 when used in combination with Zanubrutinib. The Compound 1 dose vary but the Zanubrutinib dose is fixed at 320 mg/day (160 mg twice daily or 320 mg once daily). The ramp-up dose increases weekly until the target dose for the cohort is reached. […]"}, "[3]": {"details": "36 patients, monotherapy N = 25, combination therapy N = 11"}, "[4]": {"details": "58 patients, monotherapy n = 32, combination n = 26"}}, "data": [{"smiles": "CC(C)c1ccccc1[C@@H]1CCCN1C1CC2(CCN(c3ccc(C(=O)NS(=O)(=O)c4ccc(NCC5CCC(C)(O)CC5)c([N+](=O)[O-])c4)c(Oc4cnc5[nH]ccc5c4)c3)CC2)C1", "note": "(stereo partly drawn) [Compound 1, 2-((1H-pyrrolo[2,3-b]pyridin-5-yl)oxy)-N-((4-((((1r,4r)-4-hydroxy-4-methylcyclohexyl)methyl)amino)-3-nitrophenyl)sulfonyl)-4-(2-((S)-2-(2-isopropylphenyl)pyrrolidin-1-yl)-7-azaspiro[3.5]nonan-7-yl)benzamide]", "values": [{"measurement": "Mean TV (D 21) (mm^3 ± SEM)", "setting": "[1]; 5 mpk p.o. QD", "result": "1293.3 ± 100.0", "unit": "mm^3"}, {"measurement": "Mean TV (D 21) (mm^3 ± SEM)", "setting": "[1]; 15 mpk p.o. QD", "result": "929.5 ± 73.6", "unit": "mm^3"}, {"measurement": "Mean TV (D 21) (mm^3 ± SEM)", "setting": "[1]; 50 mpk p.o. QD", "result": "927.5 ± 100.6", "unit": "mm^3"}, {"measurement": "TGI (%)", "setting": "[1]; 5 mpk p.o. QD, 5 mg/kg", "result": 29, "unit": "%"}, {"measurement": "TGI (%)", "setting": "[1]; 15 mpk p.o. QD, 15 mg/kg", "result": 49, "unit": "%"}, {"measurement": "TGI (%)", "setting": "[1]; 50 mpk p.o. QD, 50 mg/kg", "result": 49, "unit": "%"}, {"measurement": "AEs, n (%): AEs leading to discontinuation of Compound 1", "setting": "[2]; [3]", "result": "1 n (%)"}, {"measurement": "AEs, n (%): AEs leading to dose reduction of Compound 1", "setting": "[2]; [3]", "result": "0 n (%)"}, {"measurement": "AEs, n (%): AEs leading to hold of Compound 1", "setting": "[2]; [3]", "result": "4 n (%)"}, {"measurement": "AEs, n (%): Grade ≥3 AEs", "setting": "[2]; [3]", "result": "11 n (%)"}, {"measurement": "AEs, n (%): Serious AEs", "setting": "[2]; [3]", "result": "9 n (%)"}, {"measurement": "AEs, n (%): Total", "setting": "[2]; [3]", "result": "22 n (%)"}, {"measurement": "AEs, n (%): Leading to death", "setting": "[2]; 36 patients, monotherapy N = 25, combination therapy N = 11, neither death related to study drug", "result": "2 n (%)"}, {"measurement": "Diarrhea, All Grade, n (%)", "setting": "[2]; [4]", "result": "8 n (%)"}, {"measurement": "Diarrhea, Grade ≥3, n (%)", "setting": "[2]; [4]", "result": "0 n (%)"}, {"measurement": "Fatigue, All Grade, n (%)", "setting": "[2]; [4]", "result": "8 n (%)"}, {"measurement": "Fatigue, Grade ≥3, n (%)", "setting": "[2]; [4]", "result": "0 n (%)"}, {"measurement": "Headache, All Grade, n (%)", "setting": "[2]; [4]", "result": "5 n (%)"}, {"measurement": "Headache, Grade ≥3, n (%)", "setting": "[2]; [4]", "result": "0 n (%)"}, {"measurement": "Nausea, All Grade, n (%)", "setting": "[2]; [4]", "result": "12 n (%)"}, {"measurement": "Nausea, Grade ≥3, n (%)", "setting": "[2]; [4]", "result": "0 n (%)"}, {"measurement": "DLTs", "setting": "[2]; Cohort 1A NHL, monotherapy, 40-mg (n=3), 80-mg (n=4) and 320-mg (n=3) dose cohorts", "result": "no disease-limiting toxicities (DLTs)"}, {"measurement": "DLTs", "setting": "[2]; Cohort 1A NHL, monotherapy, 160-mg (n=3+1) dose cohort", "result": "one DLT of grade 3 febrile neutropenia"}, {"measurement": "MTD", "setting": "[2]; Cohort 1A NHL, monotherapy, all dose cohorts completed", "result": "no MTD reached through 640 mg"}, {"measurement": "DLTs", "setting": "[2]; Cohort 1B R/R CLL, monotherapy, 80 mg target dose level (n=4)", "result": "one DLT of grade 4 neutropenia"}, {"measurement": "patients with grade ≥3 neutropenia", "setting": "[2]; monotherapy", "result": 5, "unit": "patients"}, {"measurement": "patients with neutropenia", "setting": "[2]; monotherapy", "result": 6, "unit": "patients"}, {"measurement": "Abdominal Pain, All Grade, n (%)", "setting": "[2]; monotherapy n = 32", "result": "4 n (%)"}, {"measurement": "Abdominal Pain, Grade ≥3, n (%)", "setting": "[2]; monotherapy n = 32", "result": "2 n (%)"}, {"measurement": "Constipation, All Grade, n (%)", "setting": "[2]; monotherapy n = 32", "result": "5 n (%)"}, {"measurement": "Constipation, Grade ≥3, n (%)", "setting": "[2]; monotherapy n = 32", "result": "0 n (%)"}, {"measurement": "Dizziness, All Grade, n (%)", "setting": "[2]; monotherapy n = 32", "result": "5 n (%)"}, {"measurement": "Dizziness, Grade ≥3, n (%)", "setting": "[2]; monotherapy n = 32", "result": "0 n (%)"}, {"measurement": "Fall, All Grade, n (%)", "setting": "[2]; monotherapy n = 32", "result": "5 n (%)"}, {"measurement": "Fall, Grade ≥3, n (%)", "setting": "[2]; monotherapy n = 32", "result": "2 n (%)"}, {"measurement": "Neutropenia, All Grade, n (%)", "setting": "[2]; monotherapy n = 32", "result": "8 n (%)"}, {"measurement": "Neutropenia, Grade ≥3, n (%)", "setting": "[2]; monotherapy n = 32", "result": "6 n (%)"}, {"measurement": "Oedema peripheral, All Grade, n (%)", "setting": "[2]; monotherapy n = 32", "result": "4 n (%)"}, {"measurement": "Oedema peripheral, Grade ≥3, n (%)", "setting": "[2]; monotherapy n = 32", "result": "0 n (%)"}, {"measurement": "Pyrexia, All Grade, n (%)", "setting": "[2]; monotherapy n = 32", "result": "6 n (%)"}, {"measurement": "Pyrexia, Grade ≥3, n (%)", "setting": "[2]; monotherapy n = 32", "result": "1 n (%)"}, {"measurement": "Thrombocytopenia, All Grade, n (%)", "setting": "[2]; monotherapy n = 32", "result": "4 n (%)"}, {"measurement": "Thrombocytopenia, Grade ≥3, n (%)", "setting": "[2]; monotherapy n = 32", "result": "2 n (%)"}, {"measurement": "Urinary tract infection, All Grade, n (%)", "setting": "[2]; monotherapy n = 32", "result": "4 n (%)"}, {"measurement": "Urinary tract infection, Grade ≥3, n (%)", "setting": "[2]; monotherapy n = 32", "result": "0 n (%)"}, {"measurement": "laboratory TLS", "setting": "[2]; monotherapy, one high-risk patient with CLL, resolved with no intervention", "result": "< 2", "unit": "%"}, {"measurement": "tolerable dose", "setting": "[2]; result of 58 patients, monotherapy or in combination with Zanubrutinib, MTD not yet reached", "result": "≤ 640", "unit": "mg"}]}]}
